Values of other authors as cited in patent US7776886B2, “Cyclopropyl piperidine glycine transporter inhibitors” (Merck Sharp & Dohme Corp., priority 2004, dated 2010).

Experiments:
NMDA receptor = conditions: rat
[1] = mice
[2] = schizophrenia patients poorly responsive to antipsychotic drugs

Row | Compound | NMDA receptor activity (NMDA receptor) | NMDA receptor-dependent long-term potentiation (NMDA receptor) | pre-pulse inhibition (measure of sensory gating) [1] | effect on positive, negative and cognitive symptoms [2]
1 | CN(CCC(Oc1ccc(-c2ccccc2)cc1)c1ccc(F)cc1)CC(=O)O (stereo not shown) [NFPS, (N-[3-(4′-fluorophenyl)-3-(4′-phenylphenoxy)propyl])sarcosine] | potentiates | potentiates | enhance pre-pulse inhibition | 
2 | CNCC(=O)O [sarcosine] |  |  |  | beneficial effect
